Source: patent US20250388568A1, “NLRP3 INHIBITORS” (Kodiak Sciences Inc., priority 2022, published 2025)
Where two headings read alike, the source gives them in different places.

Key:
[1] = system: IL-1β release in THP-1-ASC-GFP cells after NLRP3 activation; assay: IC50 determination of IL-1β release inhibition in THP-1-ASC-GFP cells; type: cell-based; conditions: THP1-ASC-GFP, read-out: IL-1β IC50 (nM) THP1 cells
Protocol: Example 78: IC50 Determination of IL-1β Release Inhibition in THP-1-ASC-GFP Cells The compounds were tested for their ability to inhibit the IL-1β release in the THP-1-ASC-GFP cells after NLRP3 activation. THP1-ASC-GFP cells (Invivogen […] thawed following Invivogen's initial culture procedure. […] The growth medium was composed of RPM1640 medium (Gibco 32404-014), 10% heat inactivated (HI) serum (Gibco A3840102), Pen/Strep (Quality Biologics 118-089-721), 10 mM Hepes (Quality Biologics 118-089-721), 2 mM Glutamax (GIBCO 35050-061), 100 μg/mL normocin (Invivogen ant-nr), 100 μg/mL Zeocin (Invivogen ant-zn). The growth medium was freshly prepared once a week and sterile filtered. Assay medium consisted of RPMI 1640 medium, 10 mM Hepes, 2 mM Glutamax and Pen/Strep. To the assay medium, 1 μg/mL LPS (Invivogen tlrl-3pelps) was added. A cell suspension was prepared with assay medium and LPS at 1.25M cells per mL. With an electronic pipet, 80 μl of cell suspension was added to U bottom 96 well polystyrene plates (VWR 10062-902) leaving columns 1 and 2 empty. The plates were placed in the incubator for 4 hours. […] DMSO). An hour prior to the end of LPS incubation, a separate 96 deep well plate, Plate B, was prepared with 400 μL of assay media per well, then 2 μL of the stock DMSO solution from Plate A was added to each corresponding well. Plate B was covered to avoid media evaporation. In a 50 mL tube, a solution of nigericin in assay media at […] concentration was prepared. To a new 96 deep well plate, Plate C, 200 μL of this nigericin containing media was dispensed to each well and […] of the test compounds from Plate A to each corresponding well was added. Plate C was covered to avoid media evaporation. After 4 hours of priming, all the media from the LPS treated THP-1 cells in the initial U bottom plate was removed manually. To this plate of primed cells, 80 μL/well test compounds from Plate B was added in duplicate columns (5 compounds tested per plate). The plate was placed in an incubator for 30 min. […] The plate was placed back in the incubator for 1 hour. At the end of 1 hour, the supernatant from this test plate was transferred to a new 96 well V bottom polypropylene plate which was frozen immediately at -80° C. The plate was transferred to -20° C. the next day and awaiting further determination of cytokine IL-1β level. The release of IL-1β into the cell media was determined by MSD® Multi-Spot Assay System (V-Plex, IL-1B kit, […]-4). Following the manufacture's protocol and using the Alternate Protocol 3, Dilute-In-Plate protocol specifically, the level of IL-1β in the above collected supernatant plate was measured as electrochemiluminescent signals. Using MSD DISCOVERY WORKBENCH® analysis software, the signals were converted to the concentration of IL-1β in each well. The IC50 values of the compounds were calculated using the Graph Pad Prism software based on the […] concentration determined. The detection range of IL-1β using MSD kit was approximately […] (based on various lots of standards purchased from MSD).

[2] = system: IL-1β release in U937 cells after NLRP3 activation; assay: IC50 determination of IL-1β release inhibition in U937 cells; type: cell-based; conditions: Homo sapiens, read-out: IL-1β IC50 (nM) U937 cells
Protocol: Example 79: IC50 Determination of IL-1β Release Inhibition in U937 Cells The compounds of the present disclosure were tested for their ability to inhibit the IL-1β release in the U937 cells after NLRP3 activation. U937 cells (U-97 CRL 1593.2) were thawed following ATCC's initial culture procedure. […] The growth medium was composed of RPMI1640 medium (Quality Biological 112-040-101), 10% serum (Corning 35-076-CV), Pen/Strep (GIBCO 15140-122), 10 mM Hepes (Quality Biological 118-089-721), 2 mM Glutamax (GIBCO 35050-061), and 100 μg/mL normocin (Invivogen ant-nr)-Differentiating media was prepared by adding Phorbol 12-myristate 13-acetate (PMA) (AdipoGen AG-CN2-0010-M005) to growth medium. A cell suspension was prepared with differentiating media at 500k cells/ml. With an electronic pipet, 200 ul of cell suspension was added to each well (96w white plate Corning 3903) leaving columns 1 and 2 empty. Plates were left in the biosafety cabinet for 15 min and then placed in incubator for 90 hours. Priming media was prepared with assay medium consisting of RPMI 1640 medium, 10 mM Hepes, 2 mM Glutamax and Pen/Strep plus 1 μg/mL LPS (Invivogen tlrl-3pelps). Differentiating media was manually removed and 80 ul of priming media was added to each well with an electronic pipet. The plates were placed in the incubator for 5 hours. […] DMSO). An hour prior to the end of LPS incubation, a separate 96 deep well plate, Plate B, was prepared with 400 μL of assay media per well, then […] of the stock DMSO solution from Plate A was added to each corresponding well. Plate B was covered to avoid media evaporation. In a 50 mL tube, a solution of nigericin in assay media at 50 uM/mL concentration was prepared. To a new 96 deep well plate, Plate C, 200 μL of this nigericin containing media was dispensed to each well and 1 μL of the test compounds from Plate B to each corresponding well was added. Plate C was covered to avoid media evaporation. After 5 hours of priming, all the media from the LPS treated U937 cells was removed manually. To this plate of primed cells, 80 μL/well test compounds from Plate B (assay media+compound) was added in duplicate columns (5 compounds tested per plate). The plate was placed in an incubator for 30 min. […] The plate was placed back in the incubator for 1 hour. At the end of 1 hour, the supernatant from this test plate was transferred to a new 96 well V bottom polypropylene plate which was frozen immediately at -80° C. The plate was transferred to -20° C. the next day and awaited further determination of cytokine IL-Ip level. The release of IL-1β into the cell media was determined by MSD® Multi-Spot Assay System (V-Plex, IL-1B kit, […]-4). Following the manufacture's protocol and using the Alternate Protocol 3, Dilute-In-Plate protocol specifically, the level of IL-IP in the above collected supernatant plate was measured as electrochemiluminescent signals. Using MSD DISCOVERY WORKBENCH® analysis software, the signals were converted to the concentration of IL-1β in each well. The IC50 values of the compounds were calculated using the Graph Pad Prism software based on the IL-1β concentration determined. The detection range of IL-1β using MSD kit was approximately […] (based on various lots of standards purchased from MSD).

[3] = THP-1-ASC-GFP cells, LPS priming 4 h, nigericin, average of at least three experiments
[4] = U-937, PMA-differentiated U937 cells, LPS priming 5 h, nigericin, average of at least three experiments

| IC50 [1, 3] [nM] | IC50 [2, 4] [nM] | Structure (SMILES) | IC50 ([1]; 4 h) [nM] | IC50 ([2]; U-937, 5 h) [nM] |
| --- | --- | --- | --- | --- |
| < 5 | < 5 | Cc1oc(S(=N)(=O)NC(=O)Nc2c3c(cc4c2CCC4)CCC3)cc1CN1CCC[C@H]1CO (stereo partly drawn) [Example 8, N-((1,2,3,5,6,7-hexahydro-s-indacen-4-yl)carbamoyl)-4-(((S)-2-(hydroxymethyl)pyrrolidin-1-yl)methyl)-5-methylfuran-2-sulfonimidamide] |  |  |
| < 5 | < 5 | CN(CC1(O)CCC1)C(=O)c1coc(S(=N)(=O)NC(=O)Nc2c3c(cc4c2CCC4)CCC3)c1 (stereo not shown) [Example 4, 5-(N-((1,2,3,5,6,7-hexahydro-s-indacen-4-yl)carbamoyl)sulfamidimidoyl)-N-((1-hydroxycyclobutyl)methyl)-N-methylfuran-3-carboxamide] |  |  |
| 50 to 500 | 5 to 50 | CN(Cc1cc(S(=O)(=O)NC(=O)Nc2c3c(c(F)c4c2CCC4)CCC3)nn1C)CC1(O)CCC1 [Example 58, 3-(8-fluoro-1,2,3,5,6,7-hexahydro-s-indacen-4-yl)-1-[5-({[(1-hydroxycyclobutyl)methyl](methyl)amino}methyl)-1-methylpyrazol-3-ylsulfonyl]urea] |  |  |
| < 5 | 5 to 50 | Cc1oc(S(=N)(=O)NC(=O)Nc2c3c(cc4c2CCC4)CCC3)cc1CN (stereo not shown) [Example 24, 4-(aminomethyl)-N-((1,2,3,5,6,7-hexahydro-s-indacen-4-yl)carbamoyl)-5-methylfuran-2-sulfonimidamide] |  |  |
| 50 to 500 | 50 to 500 | Cc1oc([S@@](=N)(=O)NC(=O)Nc2c3c(cc4c2CCC4)CCC3)cc1CNC(C)C (single isomer, unassigned) [Example 26, formic acid] |  |  |
| < 5 | 5 to 50 | CC(C)n1nc(S(=N)(=O)NC(=O)Nc2c3c(cc4c2CCC4)CCC3)cc1CN1CCC[C@@H]1CO (stereo partly drawn) [Example 20, N-((1,2,3,5,6,7-hexahydro-s-indacen-4-yl)carbamoyl)-5-(((R)-2-(hydroxymethyl)pyrrolidin-1-yl)methyl)-1-isopropyl-1H-pyrazole-3-sulfonimidamide] |  |  |
| < 5 | 5 to 50 | Cc1oc(S(=N)(=O)NC(=O)Nc2c3c(cc4c2CCC4)CCC3)cc1CN(C)CC1(CO)CCC1 (stereo not shown) [Example 9, N-((1,2,3,5,6,7-hexahydro-s-indacen-4-yl)carbamoyl)-4-((((1-(hydroxymethyl)cyclobutyl)methyl)(methyl)amino)methyl)-5-methylfuran-2-sulfonimidamide] |  |  |
|  | 5 to 50 | N=S(=O)(NC(=O)Nc1c2c(cc3c1CCC3)CCC2)c1cc(CN)co1 (stereo not shown) [Example 22, 4-(aminomethyl)-N-((1,2,3,5,6,7-hexahydro-s-indacen-4-yl)carbamoyl)furan-2-sulfonimidamide] |  |  |
|  | > 500 | CN(C(=O)c1coc(S(=N)(=O)NC(=O)Nc2c3c(cc4c2CCC4)CCC3)c1)[C@H]1C[C@H](N)C1 (stereo partly shown) [Example 16] |  |  |

The next lines start with the molecule.

| Structure (SMILES) | IC50 [1, 3] [nM] | IC50 [2, 4] [nM] | IC50 ([1]; 4 h) [nM] | IC50 ([2]; U-937, 5 h) [nM] |
| --- | --- | --- | --- | --- |
| Cc1oc(S(=O)(=O)NC(=O)Nc2c3c(c(F)c4c2CCC4)CCC3)cc1CN1C[C@@H](O)[C@H](F)C1 [Example 43, N-((8-fluoro-1,2,3,5,6,7-hexahydro-s-indacen-4-yl)carbamoyl)-4-(((3R,4R)-3-fluoro-4-hydroxypyrrolidin-1-yl)methyl)-5-methylfuran-2-sulfonamide] | < 5 | 5 to 50 |  |  |
| Cc1oc(S(=N)(=O)NC(=O)Nc2c3c(cc4c2CCC4)CCC3)cc1CNC(C)C (stereo not shown) [Example 25, N-((1,2,3,5,6,7-hexahydro-s-indacen-4-yl)carbamoyl)-4-((isopropylamino)methyl)-5-methylfuran-2-sulfonimidamide] |  |  | < 5 | < 5 |
| Cc1cc(S(=O)(=O)NC(=O)Nc2c3c(c(F)c4c2CCC4)CCC3)oc1CN1CC[C@H](O)C1 [Example 51, (S)-N-((8-fluoro-1,2,3,5,6,7-hexahydro-s-indacen-4-yl)carbamoyl)-5-((3-hydroxypyrrolidin-1-yl)methyl)-4-methylfuran-2-sulfonamide] | < 5 | 5 to 50 |  |  |
| Cc1oc(S(=O)(=O)NC(=O)Nc2c3c(c(F)c4c2CCC4)CCC3)cc1CN1CC[C@@H](O)C1 [Example 39, (R)-N-((8-fluoro-1,2,3,5,6,7-hexahydro-s-indacen-4-yl)carbamoyl)-4-((3-hydroxypyrrolidin-1-yl)methyl)-5-methylfuran-2-sulfonamide] | 5 to 50 | 50 to 500 |  |  |
| Cc1oc(S(=O)(=O)NC(=O)Nc2c3c(c(F)c4c2CCC4)CCC3)cc1CN1C[C@H](O)[C@@H](F)C1 [Example 41, N-((8-fluoro-1,2,3,5,6,7-hexahydro-s-indacen-4-yl)carbamoyl)-4-(((3S,4S)-3-fluoro-4-hydroxypyrrolidin-1-yl)methyl)-5-methylfuran-2-sulfonamide] | 5 to 50 | 5 to 50 |  |  |
| Cc1oc(S(=O)(=O)NC(=O)Nc2c3c(c(F)c4c2CCC4)CCC3)cc1CN(C)CC1(CO)CCC1 [Example 47, N-((8-fluoro-1,2,3,5,6,7-hexahydro-s-indacen-4-yl)carbamoyl)-4-((((1-(hydroxymethyl)cyclobutyl)methyl)(methyl)amino)methyl)-5-methylfuran-2-sulfonamide] |  | 5 to 50 |  |  |
| Cc1cc(S(=O)(=O)NC(=O)Nc2c3c(c(F)c4c2CCC4)CCC3)oc1CN1C[C@@H](O)[C@H](F)C1 [Example 54, N-((8-fluoro-1,2,3,5,6,7-hexahydro-s-indacen-4-yl)carbamoyl)-5-(((3R,4R)-3-fluoro-4-hydroxypyrrolidin-1-yl)methyl)-4-methylfuran-2-sulfonamide] |  | < 5 |  |  |
